Reference: paper PMC8707700, “Ru(III) Complexes with Lonidamine-Modified Ligands” (International Journal of Molecular Sciences, 2021)

Experiment: Lipophilicity, shake-flask method water/n-octanol
Assay type: physicochemical
Conditions: UV-vis, mean ± SD
Procedure: The lipophilicity of complexes 15–20 was studied using a standard shake-flask method in a mixture of water/n-octanol. For the quantification of compounds in the water phase, UV-vis spectrophotometry was used. […] Among other complexes, as expected, 20 was the most lipophilic (Table 1).
N-octanol was saturated with water and with water saturated with n-octanol; mixture400 mL of n-octanol (water) and 100 mL of water (n-octanol) was stirred for 24 h; and then fractions were separated. The sample of the complex was dissolved in n-octanol and a series of solutions in octanol (300, 250, 3 × 200, 150, 100, and 50 μM) was prepared. Absorption spectra were recorded and the calibration curve for maximum absorption was plotted. From 200 μM solutions, the mixtures with water were prepared (1:1, 1:2, 2:1 v/v) and shaken for 15 min. The organic phase was separated by centrifugation. The concentration of the complex in n-octanol was determined from the calibration curve and lipophilicity (logP) was calculated as log P = log [(C0–Caq)/Caq].

For “Na[trans-Ru(DMSO)(C30H37Cl2N5O)Cl4] [Compound 20]”, the “Log P” value was 1.3 ± 0.2.
